# Assays:
# Aβ1-40 [1] = biological target: T1, Aβ1-40 (Homo sapiens, UniProt P05067); assay: Fibril formation of Aβ1-40 studied with TEM; type: biochemical
# T1 construct: Fresh Aβ1-40 is incubated alone or with 6-mer
# Aβ1-40 [2] = biological target: T1, Aβ1-40; assay: SPR interaction of immobilized 6-mer and aged Aβ1-40; type: binding
# Protocol: SPR technique (BIAcore X, Uppsala, Sweden) is used to characterize the interaction of 6-mer and Aβ. Different degree of aged Aβ1-40 (aged for 0, 0.5, 1, 2, 4, 6 d at 37° C.) in HBS EP buffer solution (0.01 […], 150 mmol/L NaCl, 3.4 mmol/L EDTA-Na2, 0.005 vol % Tween-20, pH 7.4) with 5 concentrations are flowed through the 6-mer-immobilized sensor chip. The flow rate is 5 μl/min, and the injection volume is 10 μl. The binding sensorgramm is recorded and the sensor chip is regenerated with 2M NaCl.
# [3] = system: AD mice induced by Aβ1-40; assay: Morris water maze test of AD mice induced by Aβ1-40; type: in vivo; details: for Escape latency (s) 1st day: 1st day of test; for Escape latency (s) 2nd day: 2nd day of test; for Escape latency (s) 3rd day: 3rd day of test; for Latency bias(%): probe trial, 4th day, within 60 s
# Protocol: Male Balb/c mice (18-22 g, purchased from Laboratory Centre of Shandong University) are weighed and randomly assigned to six groups as follows: a control group, a model group, a low-concentration (15 mg/kg) 6-mer-treated group, a middle-concentration (30 mg/kg) 6-mer-treated group, a high-concentration (60 mg/kg) 6-mer-treated group, and a Huperzine A-treated (HBY, with a concentration of 0.2 mg/kg) group. The mice were oral administered with corresponding drugs on day 3 after grouping. The drugs were administered once a day consecutively with a dosage of 0.5 ml/20 g until the experiment is completed. The mice of control and model groups were simultaneously administered with an equivalent amount of normal saline.
# On the 8th day after drug administration, mice are injected with aged Aβ1-40 except the vehicle group as the method of reference (Jhoo J H et al., β-amyloid (1-42)-induced learning and memory deficits in mice: involvement of oxidative burdens in the hippocampus and cerebral cortex. Behavioural Brain Research (2004) 155: 185-196) to induce the AD model. Aged Aβ1-40 solution is injected into the right cerebral ventricle. […] However, on the 1st day of test, this increased escape latency is shortened in all drug-treated groups except the group treated with 15 mg/kg of 6-mer. And the escape latency of 60 mg/kg 6-mer-treated group has statistical significance compared with that of the model group (P<0.05). On the 2nd and 3rd day of test, the escape latency of all drug-treated groups are shortened, wherein that of 60 mg/kg 6-mer-treated group and HBY-treated group have statistical significance compared with that of the model group (P<0.05).
# On the 4th day of Morris water maze test, the original plate is removed and the percentage of time of mice staying at the phase of original plate within 60 s is recorded.
# SH-SY5Y cells [4] = assay: Protection of SH-SY5Y cells impaired by Aβ25-35 and Aβ1-40; type: cell-based; details: 50 and 100 μg/ml; 30 μM aged Aβ25-35 or 2 μM Aβ1-40 for 48 h (FIG. 7, 8)
# Protocol: 6-mer has similar protective effects on neuron cell line SH-SY5Y as the primary neurons. SH-SY5Y impaired with 30 μM of aged Aβ25-35 (FIG. 7) and 2 μM of Aβ1-40 (FIG. 8) for 48 h could induce a series of changes, for example, damage to the cells, reduced number of cells, occurrence of some round cells and suspension cells. Further, the survival rate of the cells is reduced to 73.3±9.4% and 64.1±2.5% respectively.
# SH-SY5Y cells [5] = assay: Apoptosis of SH-SY5Y induced by Aβ25-35 (propidium iodide flow cytometry); type: cell-based; details: 30 μM aged Aβ25-35 48 h, Aβ alone 24.8±1.9%
# Protocol: SH-SY5Y cells are incubated in 6-well plates at a density of 2×10^5 cells per well. The day after plating, cells are pretreated with varying concentrations (0, 50, 100 μg/ml) of 6-mer for 24 h, followed by the addition of 30 μM aged Aβ25-35 (purchased from Sigma. Co.). After 48 h at 37° C., cells are digested, collected, washed, centrifuged at 1200 rpm and incubated with […] of a mixture of 5 mg/ml propidium iodide (Hyclone Co.) and 100 U/ml RNase (Hyclone Co.). Then the cells are measured by flow cytometry (BD Co., US), with 8000 cells per sample
# ChAT = assay: Cerebral cortex ChAT activity of Aβ1-40-induced AD mice; type: in vivo
# Aβ1-40 fibril = Aβ1-40 fibril (Homo sapiens, UniProt P05067); assay: Destability of preformed Aβ1-40 fibril (TEM); type: biochemical; details: Aβ1-40 aged 7 d, then 6-mer for additional 3 days (FIG. 10C)
# Chain of Aβ1-40 fibril (P05067 672-711 limits assumed): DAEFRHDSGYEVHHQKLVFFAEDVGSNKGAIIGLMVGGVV
# Protocol: 1 mg/ml of distilled water-resolved Aβ1-40 is aged at 37° C. for 7d, after which it is exposed to 6-mer for 3 days.
# [6] = system: human pancreatic beta-cells cell line NIT; assay: Protection of pancreatic beta-cell line NIT impaired by amylin (MTT); type: cell-based; details: 6-mer 10, 50, 100 μg/ml 24 h pretreatment, 30 μM aged amylin 48 h (FIG. 12)
# Protocol: The human pancreatic beta-cells cell line NIT is cultured with DMEM medium containing 10% FBS. The cells are incubateded into 96-well plates in density of 1×10^4 cells/well. The day after plating, they are pretreated with varying concentrations of 6-mer (final concentration of 0, 10, 50, 100 μg/ml) for 24 h, followed by the addition of aged amylin with a final concentration of 30 μM. After 48 h at 37° C., the survival of the cells is measured by MTT method.
# T1 sequence (P05067 672-711 limits assumed): as above
smiles,measurement,setting,value
"O=C(O)C1OC(OC2C(C(=O)O)OC(OC3C(C(=O)O)OC(OC4C(C(=O)O)OC(OC5C(C(=O)O)OC(OC6C(C(=O)O)OC(O)C(O)C6O)C(O)C5O)C(O)C4O)C(O)C3O)C(O)C2O)C(O)C(O)C1O (stereo not shown) [6-mer, mannuronic hexasaccharide]",fibril formation of Aβ1-40 (TEM),Aβ1-40 [1]; incubation 24 h and 48 h (FIG. 9),significantly inhibit the fibril formation of Aβ1-40
same,fibril formation of Aβ1-40 facilitated by heparin (TEM),"Aβ1-40 [1]; with heparin, 24 h and 48 h (FIG. 9)",significant inhibitory effect
same,Kd,Aβ1-40 [2]; Aβ1-40 aged 0.5 d at 37° C.,107 nM
same,Kd,Aβ1-40 [2]; Aβ1-40 aged 1 d at 37° C.,90.6 nM
same,Kd,Aβ1-40 [2]; Aβ1-40 aged 2 d at 37° C.,54.3 nM
same,Kd,Aβ1-40 [2]; Aβ1-40 aged 4 d at 37° C.,21.5 nM
same,Kd,Aβ1-40 [2]; Aβ1-40 aged 6 d at 37° C.,14.5 nM
same,Kd,Aβ1-40 [2]; fresh Aβ1-40 (aged 0 d),685 nM
same,Escape latency (s) 1st day,[3]; 6-mer 15 mg/kg oral once a day,90.07 ± 10.71 s
same,Escape latency (s) 2nd day,[3]; 6-mer 15 mg/kg oral once a day,83.29 ± 9.53 s
same,Escape latency (s) 3rd day,[3]; 6-mer 15 mg/kg oral once a day,72.83 ± 12.50 s
same,Escape latency (s) 1st day,[3]; 6-mer 30 mg/kg oral once a day,77.71 ± 8.69 s
same,Escape latency (s) 2nd day,[3]; 6-mer 30 mg/kg oral once a day,71.69 ± 10.11 s
same,Escape latency (s) 3rd day,[3]; 6-mer 30 mg/kg oral once a day,68.45 ± 14.46 s
same,Escape latency (s) 1st day,[3]; 6-mer 60 mg/kg oral once a day,56.92 ± 9.92 s
same,Escape latency (s) 2nd day,[3]; 6-mer 60 mg/kg oral once a day,63.57 ± 10.54 s
same,Escape latency (s) 3rd day,[3]; 6-mer 60 mg/kg oral once a day,62.50 ± 13.10 s
same,Latency bias(%),[3]; 15 mg/kg,19.67 ± 5.15%
same,Latency bias(%),[3]; 30 mg/kg,22.99 ± 5.79%
same,Latency bias(%),[3]; 60 mg/kg,28.44 ± 6.08 %
same,"neurotoxicity of Aβ (survival rate, suspension cells)",SH-SY5Y cells [4],significantly inhibit the neurotoxicity of Aβ
same,percentage of hypodiploid cells,SH-SY5Y cells [5]; 50 μg/ml 6-mer 24 h pretreatment,10.2±1.3%
same,percentage of hypodiploid cells,SH-SY5Y cells [5]; 100 μg/ml 6-mer 24 h pretreatment,5.1±0.7%
same,ChAT activity (pmol/mg prot./min),ChAT; 15 mg/kg,90.94 ± 3.77 pmol/mg prot./min
same,ChAT activity (pmol/mg prot./min),ChAT; 30 mg/kg,99.98 ± 5.07 pmol/mg prot./min
same,ChAT activity (pmol/mg prot./min),ChAT; 60 mg/kg,94.69 ± 5.83 pmol/mg prot./min
same,effect on preformed Aβ1-40 fibers (TEM),Aβ1-40 fibril,turned into small irregular short fibers
same,survived cells impaired by amylin,[6],increase the survived cells impaired by amylin in a dose-dependent manner
